Measured values reported in the supplement of paper PMC10307832.

Experiments:
Assay in all cases: relative viability (nuclei count vs DMSO), 5 days (fraction); higher = more cells survive
Ponatinib + Navitoclax = compound: Cc1ccc(C(=O)Nc2ccc(CN3CCN(C)CC3)c(C(F)(F)F)c2)cc1C#Cc1cnc2cccnn12 [Ponatinib] + CC1(C)CCC(c2ccc(Cl)cc2)=C(CN2CCN(c3ccc(C(=O)NS(=O)(=O)c4ccc(N[C@H](CCN5CCOCC5)CSc5ccccc5)c(S(=O)(=O)C(F)(F)F)c4)cc3)CC2)C1 [Navitoclax] (partner 0.5 µM)
Summary of the method: (§1)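 Values are medians from duplicate plates. Each reflects relative viability, defined as the nuclei count of treated wells over that of vehicle wells. Lung cancer cell lines in 1536-well plates were pin-tool dosed one day after seeding with one drug alone or with a fixed anchor-drug dose plus five library-drug doses (not always all listed) in √10 steps, then fixed, stained and imaged at 4× after 5 days.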

Pazopanib = compound: Cc1ccc(Nc2nccc(N(C)c3ccc4c(C)n(C)nc4c3)n2)cc1S(N)(=O)=O [Pazopanib]
Summary of the method: (§2)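 Hoechst staining, done together with fixation and permeabilisation, marked nuclei for 4× imaging and MetaXpress counting. This followed 5 days without medium change after lung cancer cell lines, kept overnight at 37 °C in 1536-well plates, were pinned with five library-drug doses (not always all listed) spaced by √10 on vehicle-anchored plates. Viability is the ratio of treated-well to vehicle-well nuclei, expressed as a median across plates. Plates passed only at control CV below 25% with at least one doubling.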

Ponatinib = compound: Cc1ccc(C(=O)Nc2ccc(CN3CCN(C)CC3)c(C(F)(F)F)c2)cc1C#Cc1cnc2cccnn12 [Ponatinib]
Summary of the method: as §2

Ponatinib + Foretinib = compound: Cc1ccc(C(=O)Nc2ccc(CN3CCN(C)CC3)c(C(F)(F)F)c2)cc1C#Cc1cnc2cccnn12 [Ponatinib] + COc1cc2c(Oc3ccc(NC(=O)C4(C(=O)Nc5ccc(F)cc5)CC4)cc3F)ccnc2cc1OCCCN1CCOCC1 [Foretinib] (partner 0.25 µM)
Summary of the method: as §1

Cell Line | relative viability (Ponatinib + Navitoclax; first compound 0.002 µM) | relative viability (Ponatinib + Navitoclax; first compound 0.006325 µM) | relative viability (Ponatinib + Navitoclax; first compound 0.06325 µM) | relative viability (Ponatinib + Navitoclax; first compound 0.2 µM) | relative viability (Pazopanib; 0.01 µM) | relative viability (Pazopanib; 0.03162 µM) | relative viability (Pazopanib; 0.1 µM) | relative viability (Pazopanib; 0.3162 µM) | relative viability (Pazopanib; 1 µM) | relative viability (Ponatinib; 0.002 µM) | relative viability (Ponatinib; 0.006325 µM) | relative viability (Ponatinib; 0.06325 µM) | relative viability (Ponatinib; 0.2 µM) | relative viability (Ponatinib + Foretinib; first compound 0.002 µM) | relative viability (Ponatinib + Foretinib; first compound 0.006325 µM) | relative viability (Ponatinib + Foretinib; first compound 0.06325 µM) | relative viability (Ponatinib + Foretinib; first compound 0.2 µM)
HCC-44 | 0.941 | 0.98 | 1.16 | 0.93 | 0.886 | 0.929 | 0.998 | 0.983 | 1.02 | 0.908 | 0.929 | 0.942 | 0.958 |  |  |  | 
HCC-827 | 1.02 | 0.971 | 1.06 | 0.983 | 1.11 | 1.06 | 1.04 | 1.07 | 1.04 | 0.983 | 1.03 | 1.07 | 1.03 | 0.971 | 1.02 | 0.997 | 1
NCI-H1623 |  |  |  |  | 0.964 | 0.909 | 0.885 | 1.06 | 0.929 | 0.991 | 1.05 | 1.01 | 0.969 | 0.899 | 0.832 | 0.889 | 0.833
NCI-H2405 | 0.855 | 0.917 | 0.844 | 0.62 | 0.895 | 0.998 | 1.01 | 1.04 | 1.1 | 0.935 | 1.06 | 1.02 | 0.847 | 1 | 1.06 | 1.04 | 0.935
PC-3 [JPC-3] | 0.792 | 0.754 | 0.902 | 0.748 | 1.13 | 1.05 | 1.09 | 1.02 | 1.01 | 0.932 | 1.05 | 1.15 | 1.03 | 0.947 | 1.01 | 1.15 | 1.03
NCI-H1651 | 1.01 | 1.06 | 1.25 | 1.06 | 0.917 | 1 | 1.01 | 0.956 | 1.01 | 0.982 | 1.02 | 1.08 | 0.929 | 0.765 | 0.777 | 0.888 | 0.814
HARA | 1.13 | 1.14 | 1.12 | 1.16 | 0.957 | 0.978 | 1 | 1.04 | 1.03 | 0.844 | 0.972 | 0.938 | 0.914 | 0.859 | 0.855 | 0.963 | 0.878
NCI-H1650 | 1.1 | 1.22 | 1.49 | 0.999 | 1.05 | 1.02 | 0.954 | 1.12 | 1.16 | 0.915 | 1.05 | 1.22 | 0.891 | 1.36 | 1.07 | 1.55 | 1.31
NCI-H1793 | 0.495 | 0.422 | 0.54 | 0.478 |  | 0.875 | 0.856 | 0.961 | 1.16 | 0.959 | 0.914 | 0.89 | 0.715 | 0.749 | 0.696 | 0.707 | 0.539
NCI-H2347 | 0.684 | 0.834 | 0.899 | 0.719 | 0.932 | 1 | 0.98 | 1.05 | 1.04 | 0.977 | 1 | 1.19 | 0.977 |  | 0.818 | 1.38 | 1.01
NCI-H1563 |  |  |  |  | 0.85 | 0.997 | 1.02 | 0.996 | 1.07 | 0.935 | 0.959 | 0.99 | 0.815 | 0.881 | 0.863 | 0.955 | 0.854
ABC-1 |  |  |  |  | 0.798 | 0.89 |  | 1.08 | 0.974 | 0.865 | 0.852 | 0.96 | 0.751 | 1.01 | 0.995 | 1.15 | 1.09
NCI-H522 |  |  |  |  | 0.723 | 0.978 | 0.864 | 0.983 | 1.12 | 0.816 | 1 | 0.818 | 0.847 |  |  |  | 
SW 900 |  |  |  |  | 0.796 | 0.902 | 0.762 | 1.12 | 1.2 | 0.817 | 0.783 | 0.889 | 0.794 | 0.893 | 0.998 | 1.12 | 0.593
NCI-H1792 | 0.609 | 0.648 | 0.582 | 0.624 |  | 0.911 | 0.832 | 1.12 | 0.956 | 0.887 | 0.836 | 1.12 | 0.838 |  |  |  | 
LCLC-103H |  |  |  |  | 0.762 | 1.03 | 0.984 | 0.948 | 1.04 | 0.925 | 1 | 1.05 | 0.957 | 0.745 | 0.755 | 0.775 | 0.688
NCI-H1648 |  |  |  |  | 0.582 | 0.869 | 0.842 | 0.903 | 0.837 | 0.862 | 0.836 | 0.671 | 0.799 |  |  |  | 
NCI-H2342 |  |  |  |  | 0.687 | 0.945 | 0.957 | 0.883 | 0.852 | 0.958 | 0.946 | 1.01 | 0.999 | 1.04 | 1.04 | 1.01 | 0.972
NCI-H650 |  |  |  |  | 0.801 | 0.982 | 0.916 | 0.948 | 0.946 | 0.791 | 0.848 | 0.858 | 0.896 | 0.968 | 1.03 | 1.02 | 0.884
NCI-H358 |  |  |  |  | 1.04 | 0.927 | 0.933 | 0.991 | 1.15 | 0.904 | 1.04 | 1.01 | 0.9 | 0.734 | 0.731 | 1.02 | 0.784
NCI-H661 |  |  |  |  | 0.939 | 0.958 | 1.03 | 1 | 0.986 | 0.98 | 0.942 | 0.985 | 0.99 | 1.03 | 0.98 | 0.993 | 0.998
